Patent US20210144990A1, “IMPROVED ULTRA-FAST COOLING SYSTEM AND METHODS OF USE” (priority 2018, published 2021)

Test system: corneal endothelial cells
Experiment: Post-thaw quality of pig corneal endothelium after ultra-fast cooling, with or without DMSO in DMEM
Assay type: cell-based
Details: pig corneal pieces cooled to -196 degrees C by liquid nitrogen blade jet, thawed under 37 degrees C water jet
Text: Small samples excised from pig corneas were cooled from room temperature (ambient) to −196 degrees C. using an ultra-fast cooling system of the present invention that contains a single liquid nitrogen blade jet and two gas nitrogen blade jets. Pig corneas were processed and cut into approx. 0.5 cm×0.5 cm×0.5 cm pieces, and each piece maintains a full layer of endothelium, i.e., a single layer of corneal endothelial cells of approximately 10 microns in size, on one surface. The tissues are first placed in standard holding media, Dulbecco's Modified Eagle Media (DMEM), at 4 degrees C. A sample holder was made with a holding cavity of 0.5 cm in depth and with a 20 microns thick sheet of stainless steel as its cover sheet. […] The corneal endothelium of each tissue faced to the cover sheet and directly contacted its inner surface, to achieve maximum cooling rate possibly provided by the liquid nitrogen jet for the endothelium and prevent exposure of the cells to liquid nitrogen flows. […] The post-thaw quality of the corneal endothelia was evaluated by quantification of endothelial cell number based on differential interference contrast light microscopy. The cell health was assessed by using cell circularity as a surrogate marker using differential interference contrast light microscopy. […]

Structure (SMILES): C[S+](C)[O-] [DMSO, dimethyl sulfoxide]
- post-thaw endothelial cell viability (cell count vs fresh tissue, FIG. 19D) (10% DMSO in DMEM): comparable to readings of the fresh corneas
- post-thaw endothelial cell viability (cell count vs fresh tissue, FIG. 19D) (20% DMSO in DMEM): impacted the cell viability due to toxicity
